This is an account of results in patent US20240376097A1, “BCL-2 Inhibitor” (BeiGene Ltd., priority 2020, published 2024).

The target in test [1] is Recombinant human Bcl-2 protein (Homo sapiens (Human), UniProt P10415). Briefly: Bcl-2 TR-FRET Assay. The format is binding. To be noted: Bcl-2 wild type, TR-FRET; read-out: Biochemical assay (IC50, nM) Bcl-2 WT. In a few lines:
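0.05 nM recombinant Bcl-2 preincubated 0.5 h at room temperature with 10-point compound dilutions (top final 1, 0.1, 0.02 or 0.01 uM) in pH 7.5 phosphate buffer. FITC-Bak peptide (0.5 nM) and anti-6His Tb cryptate then added for 1 h. TR-FRET read; IC50 from four-parameter logistic fit.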
For orientation: In TR-FRET formats the signal depends on donor and acceptor labels being close together.

Test [2] has as its target recombinant human Bcl-2-G101V protein (Homo sapiens (Human), UniProt P10415, G101V). Nature of the test: Bcl-2-G101V TR-FRET Assay. The format is binding. The settings on record: Bcl-2 G101V mutant, TR-FRET; read-out: Biochemical assay (IC50, nM) Bcl-2 G101V. In a few lines: (§1)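 Measures how compounds block Bcl-2-G101V engaging its ligand, by TR-FRET with 337 nm excitation and a 490/520 nm emission ratio; dose-response data give IC50 via a four-parameter logistic model.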

The test system of test [3] is recombinant human Bcl-2-G101V protein. Briefly: Bcl-2-G101V TR-FRET Assay. To be noted: ratio of biochemical IC50 Bcl-2 G101V / Bcl-2 WT. The format is binding. Put shortly:
as §1

In test [4] the test system is RS4;11 (BCL-2 dependent acute lymphoblastic leukemia cell line). Nature of the test: RS4;11 Cell Proliferation Assay. The settings on record: Homo sapiens, RS4-11, RS4;11 cells, read-out: Cellular proliferation assay (IC50, nM) RS4. The format is cell-based. In a few lines:
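RS4;11 cells, 50,000 per well in RPMI-1640 with 10% FBS, treated 48 h at 37 °C with a 10-point dilution series topping at 1 μM. Viability read by CellTiter-Glo ATP luminescence; mean IC50 reported.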

In test [5] the test system is BCL-2 G101V knock-in cell line H96 (derive from RS4;11). Briefly: Bcl 2-G101V Knock-In RS4;11 Cell Proliferation Assay. The settings on record: Homo sapiens, RS4;11 Bcl-2 G101V knock-in clone H96, 48 hrs, CellTiter-GLO, read-out: Cellular proliferation assay (IC50, nM) RS4. The format is cell-based. How it is done:
Biological Example: Bcl 2-G101V Knock-In RS4;11 Cell Proliferation Assay
(1) RS4;11 H96 Bcl 2-G101V Knock-In Cell Line Generation
Briefly, RS4;11 BCL2-G101V knock-in cell pool was generated using Crisper/Cas9 gene editing system and the BCL2-G101V knock-in single clone H96 was picked from the knock-in cell pool and validated by WES (whole exome-sequencing) and RNA-seq.
The BCL-2 dependent acute lymphoblastic leukemia (ALL) cell line, RS4;11(ATCC, CRL-1873), was cultured in RPMI-1640 complete medium (RPMI-1640 medium, HEPES (Gibco, 22400-105) supplemented with 10% fetal bovine serum (FBS) (Gibco, 10099-1441), 100 unit/ml penicillin and 100 μg/ml streptomycin (Gibco, 15140122)) and maintained in a humidified chamber at 37° C. containing 5% CO2.
To obtain BCL2-G101V knock-in cell pool, RS4;11 was co-transfected with the Cas9-gRNA which also expressed GFP label, and the Donor gene which contained the BCL2-G101V mutant sequence. After 48 hrs of electroporation, the GFP positive cells were collected through FACSAriaIII cell sorting system. Cell pool was recovered for 3 days and then cultured under 2 nM ABT-199 stress for 4 weeks. […] Then cells were plated in 96 well U-plate with 1 cell/well for 10000 wells for single clone selection. After 3-5 weeks growing, clones were successively screened by PCR sequencing. And three BCL2-G101V knock-in clones: H96, H142 and H233, have been picked out.
Three clones were validated by genome DNA and cDNA(mRNA) PCR sequencing, and BCL-2, BCL-xL and MCL-1 expression using Western Blot. The H96 clone was also validated by WES (whole exome-sequencing) and RNA-seq.
(2) Bcl 2-G101V Knock-In RS4;11 Cell Proliferation Assay
The BCL-2 G101V knock-in cell line H96 (derive from RS4;11) were used to study the cellular potency of BCL-2 inhibitors. The cells were cultured in RPMI-1640 complete medium (RPMI-1640 medium, HEPES (Gibco, 22400-105) supplemented with 10% fetal bovine serum (FBS) (Gibco, 10099-1441), 100 unit/ml penicillin and 100 μg/ml streptomycin (Gibco, 15140122)) and maintained in a humidified chamber at 37° C. containing 5% CO2. Each compound was serially diluted with 1 μM or 10 μM as the maximum concentration. To test the apoptotic effect of the compounds, the cells were seeded at 50,000 in 90 μl per well in 96-well plates and treated with 10-point dilution series of each compound for 48 hrs at 37° C. Cell viability was assessed after the treatment using CellTiter-GLO luminescent assay (Promega) according to the manufacturer's recommendations. Briefly, 30 μl of CellTiter-GLO reagent was added into 100 μl of cell culture. Mixture was agitated on an orbital shaker for 5 min to ensure cell lysis followed by 7 min incubation at room temperature to allow development and stabilization of luminescent signals, which corresponded to the quantity of ATP and thus the quantity of metabolically active cells. Luminescent signals were measured using PHERAstar FS reader (BMG). Mean IC50 values were determined with GraphPad Prism software.
For orientation: Cellular ATP, detected with luciferase, serves as a proxy for viable cell number.

On to `COc1cc(CN2CCN(C3CC4(C3)CN(c3ccc(C(=O)NS(=O)(=O)c5ccc(NC[C@H]6CC[C@](C)(O)CC6)c([N+](=O)[O-])c5)c(Oc5cnc6[nH]cc(F)c6c5)c3)C4)[C@H](c3ccccc3C(C)C)C2)cc2occc12` [Example 332, 2-((3-fluoro-1H-pyrrolo[2,3-b]pyridin-5-yl)oxy)-N-((4-((((1r,4r)-4-hydroxy-4-methylcyclohexyl)methyl)amino)-3-nitrophenyl)sulfonyl)-4-(6-((R)-2-(2-isopropylphenyl)-4-((4-methoxybenzofuran-6-yl)methyl)piperazin-1-yl)-2-azaspiro[3.3]heptan-2-yl)benzamide], for which the IC50 in test [1] turned out to be 0.7 nM; in test [2], 1.1 nM; in test [4] it was 0.17 nM; in test [5], 0.54 nM. Besides, in test [3], the “Ratio of Bcl-2 G101V/WT” value is listed as 1.6.
For `COc1ccc(CN2CCN(C3CC4(CCN(c5ccc(C(=O)NS(=O)(=O)c6ccc(NCC7CCOCC7)c([N+](=O)[O-])c6)c(Oc6cnc7[nH]cc(F)c7c6)c5)CC4)C3)[C@H](c3ccccc3C(C)C)C2)cc1OC` [Example 191, (R)-4-(2-(4-(3,4-dimethoxybenzyl)-2-(2-isopropylphenyl)piperazin-1-yl)-7-azaspiro[3.5]nonan-7-yl)-2-((3-fluoro-1H-pyrolo[2,3-b]pyridin-5-yl)oxy)-N-((3-nitro-4-(((tetrahydro-2H-pyran-4-yl)methyl)amino)phenyl)sulfonyl) benzamide], the IC50 amounted to 0.061 nM in test [1], 0.2 nM in test [2], 0.15 nM in test [4] and 0.52 nM in test [5]. Also, the “Ratio of Bcl-2 G101V/WT” value in test [3] was found to be 3.3.
`COC12CC3CC(CC(CN4CCN(C5CC6(C5)CN(c5ccc(C(=O)NS(=O)(=O)c7ccc(NC[C@H]8CC[C@](C)(O)CC8)c([N+](=O)[O-])c7)c(Oc7cnc8[nH]cc(F)c8c7)c5)C6)[C@H](c5ccccc5C(C)C)C4)(C3)C1)C2` [Example 352]: the IC50 in test [1] came out at 0.52 nM; in test [2], 2.2 nM; in test [4] it was 0.45 nM; in test [5], 4.56 nM. Also, the “Ratio of Bcl-2 G101V/WT” value in test [3] turned out to be 4.2.
On to `COc1cccc(CN2CCN(C3CC4(CCN(c5ccc(C(=O)NS(=O)(=O)c6ccc(NC[C@H]7CC[C@](C)(O)CC7)c([N+](=O)[O-])c6)c(Oc6cnc7[nH]ccc7c6)c5)CC4)C3)C(c3ccccc3C(C)C)C2)c1Cl` (stereo partly drawn) [Example 120, 2-((1H-pyrrolo[2,3-b]pyridin-5-yl)oxy)-4-(2-(4-(2-chloro-3-methoxybenzyl)-2-(2-isopropylphenyl)piperazin-1-yl)-7-azaspiro[3.5]nonan-7-yl)-N-((4-((((1r,4r)-4-hydroxy-4-methylcyclohexyl)methyl)amino)-3-nitrophenyl)sulfonyl)benzamide], for which the IC50 is 0.42 nM in test [1], 3.4 nM in test [2], 1.25 nM in test [4] and 12.7 nM in test [5]. Moreover, in test [3], the “Ratio of Bcl-2 G101V/WT” value is listed as 8.
On the same counts, the results for `CC(C)c1ccccc1[C@@H]1CN(Cc2cnn(C)c2)CCN1C1CC2(CCN(c3ccc(C(=O)NS(=O)(=O)c4ccc(NC[C@H]5CC[C@](C)(O)CC5)c([N+](=O)[O-])c4)c(Oc4cnc5[nH]ccc5c4)c3)CC2)C1` (single isomer, unassigned) [Example 22b, 2-((1H-pyrrolo[2,3-b]pyridin-5-yl)oxy)-N-((4-((((1r,4r)-4-hydroxy-4-methylcyclohexyl)methyl)amino)-3-nitrophenyl)sulfonyl)-4-(2-((S or R)-2-(2-isopropylphenyl)-4-((1-methyl-1H-pyrazol-4-yl)methyl)piperazin-1-yl)-7-azaspiro[3.5]nonan-7-yl)benzamide] are 0.038 nM, 1.9 nM, 7.6 nM, 57.3 nM and 50.0.
On the same counts, the results for `CCN1CCN(C2CC3(CCN(c4ccc(C(=O)NS(=O)(=O)c5ccc(NC[C@H]6CC[C@](C)(O)CC6)c([N+](=O)[O-])c5)c(Oc5cnc6[nH]ccc6c5)c4)CC3)C2)C(c2ccccc2C(C)C)C1` (stereo partly drawn) [Example 2] are 0.011 nM, 0.25 nM, 0.53 nM, 3.94 nM and 22.7.
The corresponding values for `COc1ccc(CN2CCN(C3CC4(CCN(c5ccc(C(=O)NS(=O)(=O)c6ccc(NC[C@H]7CC[C@](C)(O)CC7)c([N+](=O)[O-])c6)c(Oc6cnc7[nH]ccc7c6)c5)CC4)C3)C(c3ccccc3C)C2)cc1` (stereo partly drawn) [Example 34, 2-((1H-pyrrolo[2,3-b]pyridin-5-yl)oxy)-N-((4-((((1r,4r)-4-hydroxy-4-methylcyclohexyl)methyl)amino)-3-nitrophenyl)sulfonyl)-4-(2-(4-(4-methoxybenzyl)-2-(o-tolyl)piperazin-1-yl)-7-azaspiro[3.5]nonan-7-yl)benzamide] are 0.049 nM, 1.8 nM, 1.3 nM, 13.9 nM and 36.7.
As for `[2H]C([2H])([2H])Oc1ccc(CN2CCN(C3CC4(CCN(c5ccc(C(=O)NS(=O)(=O)c6ccc(NC[C@H]7CC[C@](C)(O)CC7)c([N+](=O)[O-])c6)c(Oc6cnc7[nH]ccc7c6)c5)CC4)C3)C(c3ccccc3C(C)C)C2)cc1OC([2H])([2H])[2H]` (stereo partly drawn) [Example 175, 2-((1H-pyrrolo[2,3-b]pyridin-5-yl)oxy)-4-(2-(4-(3,4-bis(methoxy-d3)benzyl)-2-(2-isopropylphenyl)piperazin-1-yl)-7-azaspiro[3.5]nonan-7-yl)-N-((4-((((1r,4r)-4-hydroxy-4-methylcyclohexyl)methyl)amino)-3-nitrophenyl)sulfonyl)benzamide], the IC50 in test [1] was determined as 0.041 nM; in test [2] it was 0.29 nM; in test [4], 0.33 nM; in test [5], 1 nM. The “Ratio of Bcl-2 G101V/WT” value in test [3] came out at 7.0.
On the same counts, the results for `COc1cc(CN2CCN(C3CC4(C3)CN(c3ccc(C(=O)NS(=O)(=O)c5ccc(NC[C@H]6CC[C@](C)(O)CC6)c([N+](=O)[O-])c5)c(Oc5cnc6[nH]ccc6c5)c3)C4)[C@H](c3ccccc3C(C)C)C2)cc(C)c1OC` [Example 234, 2-((1H-pyrrolo[2,3-b]pyridin-5-yl)oxy)-4-(6-((R)-4-(3,4-dimethoxy-5-methylbenzyl)-2-(2-isopropylphenyl)piperazin-1-yl)-2-azaspiro[3.3]heptan-2-yl)-N-((4-((((1r,4r)-4-hydroxy-4-methylcyclohexyl)methyl)amino)-3-nitrophenyl)sulfonyl)benzamide] are 0.087 nM, 0.32 nM, 0.09 nM, 0.35 nM and 3.7.
